The text below walks through data of patent US9617246B2, “Thioether-piperidinyl orexin receptor antagonists” (MERCK SHARP & DOHME CORP., priority 2013, dated 2017).

SMILES strings stand for the structures. pIC50: −log10 of the molar value.

Experiment [1] has as its target human orexin-2 receptor (Homo sapiens (Human), UniProt O43614). Put plainly: FLIPR Ca2+ Flux Assay, orexin-2 receptor. The class given is cell-based. The following applies: CHO cells, agonist 70 pM Ala-6,12 human orexin-A; read-out: hOX2R FLIPR IC50. Here is the method: The utility of the compounds in accordance with the present invention as orexin receptor OX1R and/or OX2R antagonists may be readily determined without undue experimentation by methodology well known in the art, including the “FLIPR Ca^2+ Flux Assay” (Okumura et al., Biochem. Biophys. Res. Comm. 280:976-981, 2001). In a typical experiment the OX1 and OX2 receptor antagonistic activity of the compounds of the present invention was determined in accordance with the following experimental method. For intracellular calcium measurements, Chinese hamster ovary (CHO) cells expressing the rat orexin-1 receptor or the human orexin-2 receptor, are grown in Iscove's modified DMEM containing 2 mM L-glutamine, […], 1% hypoxanthine-thymidine supplement, 100 U/ml penicillin, 100 μg/ml streptomycin and 10% heat-inactivated fetal calf serum (FCS). The cells are seeded at 20,000 cells/well into Becton-Dickinson black 384-well clear bottom sterile plates coated with poly-D-lysine. All reagents were from GIBCO-Invitrogen Corp. The seeded plates are incubated overnight at 37° C. and 5% CO2. Ala-6,12 human orexin-A as the agonist is prepared as a 1 mM stock solution in 1% bovine serum albumin (BSA) and diluted in assay buffer (HBSS containing 20 mM HEPES, 0.1% BSA and 2.5 mM probenecid, pH7.4) for use in the assay at a final concentration of 70 pM. Test compounds are prepared as 10 mM stock solution in DMSO, then diluted in 384-well plates, first in DMSO, then assay buffer. On the day of the assay, cells are washed 3 times with 100 μl assay buffer and then incubated for 60 min (37° C., 5% CO2) in 60 μl assay buffer containing 1 μM Fluo-4AM ester, 0.02% pluronic acid, and 1% BSA. The dye loading solution is then aspirated and cells are washed 3 times with 100 μl assay buffer. 30 μl of that same buffer is left in each well. Within the Fluorescent Imaging Plate Reader (FLIPR, Molecular Devices), test compounds are added to the plate in a volume of 25 μl, incubated for 5 min and finally 25 μl of agonist is added. Fluorescence is measured for each well at 1 second intervals for 5 minutes and the height of each fluorescence peak is compared to the height of the fluorescence peak induced by 70 pM Ala-6,12 orexin-A with buffer in place of antagonist. For each antagonist, IC50 value (the concentration of compound needed to inhibit 50% of the agonist response) is determined. Alternatively, compound potency can be assessed by a radioligand binding assay (described in Bergman et. al. Bioorg. Med. Chem. Lett. 2008, 18, 1425-1430) in which the inhibition constant (Ki) is determined in membranes prepared from CHO cells expressing either the OX1 or OX2 receptor. The intrinsic orexin receptor antagonist activity of a compound which may be used in the present invention may be determined by these assays.

Experiment [2] has as its target hOX1R (Homo sapiens, UniProt O43613). In words: FLIPR Ca2+ Flux Assay, orexin-1 receptor. The class given is cell-based. The settings on record: CHO cells, agonist 70 pM Ala-6,12 human orexin-A. Background: Calcium assays in cells follow changes in intracellular calcium, usually with a dye or a luminescent sensor.

Chain of human orexin-2 receptor (O43614 whole entry): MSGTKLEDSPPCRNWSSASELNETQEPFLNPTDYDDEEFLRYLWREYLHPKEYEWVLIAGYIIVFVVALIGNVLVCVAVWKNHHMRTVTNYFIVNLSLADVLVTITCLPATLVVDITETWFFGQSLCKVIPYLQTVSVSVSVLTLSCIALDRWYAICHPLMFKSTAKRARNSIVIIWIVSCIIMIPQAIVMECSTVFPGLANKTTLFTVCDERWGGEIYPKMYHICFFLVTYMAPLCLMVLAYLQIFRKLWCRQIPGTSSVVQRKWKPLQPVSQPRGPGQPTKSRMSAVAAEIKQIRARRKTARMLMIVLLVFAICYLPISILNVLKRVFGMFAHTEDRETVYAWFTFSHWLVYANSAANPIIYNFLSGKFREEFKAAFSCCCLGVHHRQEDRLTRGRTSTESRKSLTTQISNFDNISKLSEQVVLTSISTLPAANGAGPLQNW

A word on the pIC50: it is the negative decadic logarithm of the IC50, by convention in mol/L. Take `C[C@@H]1CC[C@@H](Sc2cc(C#N)ccn2)CN1C(=O)c1ccccc1Oc1ccccc1` [Example 29, 2-({(3R,6R)-6-methyl-1-[(2-phenoxyphenyl)carbonyl]piperidin-3-yl}sulfanyl)pyridine-4-carbonitrile]: the pIC50 is 7.20 in experiment [1] and 5.00 in experiment [2].
With `C[C@@H]1CC[C@@H](Sc2cc(C#N)ccn2)CN1C(=O)c1ccccc1C1CC1` [Example 30, 2-({(3R,6R)-1-[(2-cyclopropylphenyl)carbonyl]-6-methylpiperidin-3-yl}sulfanyl)pyridine-4-carbonitrile], the pIC50 in experiment [1] was 7.74; in experiment [2] it was 5.39.
Consider `C[C@@H]1CC[C@@H](Sc2cc(C#N)ccn2)CN1C(=O)c1ccccc1-c1cnn(C)c1` [Example 31, 2-{[(3R,6R)-6-methyl-1-{[2-(1-methyl-1H-pyrazol-4-yl)phenyl]carbonyl}piperidin-3-yl]sulfanyl}pyridine-4-carbonitrile], for which the pIC50 in experiment [1] is 7.52; in experiment [2], 5.50.
As for `C[C@@H]1CC[C@@H](Sc2cc(C#N)ccn2)CN1C(=O)c1cccnc1-c1ccccc1` [Example 32, 2-({(3R,6R)-6-methyl-1-[(2-phenylpyridin-3-yl)carbonyl]piperidin-3-yl}sulfanyl)pyridine-4-carbonitrile], the negative logarithm of the IC50 (pIC50) in experiment [1] was 7.14; in experiment [2], 5.00.
Take `CC(C)Oc1ccccc1C(=O)N1C[C@H](Sc2cc(C#N)ccn2)CC[C@H]1C` [Example 33, 2-{[(3R,6R)-6-methyl-1-{[2-(1-methylethoxy)phenyl]carbonyl}piperidin-3-yl]sulfanyl}pyridine-4-carbonitrile]: the figures for the pIC50 in experiment [1] and in experiment [2] were 7.53 and 5.16, respectively.
As to `CSc1ccccc1C(=O)N1C[C@H](Sc2cc(C#N)ccn2)CC[C@H]1C` [Example 34, 2-{[(3R,6R)-6-methyl-1-{[2-(methylsulfanyl)phenyl]carbonyl}piperidin-3-yl]sulfanyl}pyridine-4-carbonitrile], the results for the negative-log IC50 (pIC50) in experiment [1] and in experiment [2] were 7.12 and 5.06, respectively.
Take `C[C@@H]1CC[C@@H](Sc2cc(C#N)ccn2)CN1C(=O)c1ccccc1C1CCCCO1` (stereo partly drawn) [Example 38, 2-{[(3R,6R)-6-methyl-1-{[2-(tetrahydro-2H-pyran-2-yl)phenyl]carbonyl}piperidin-3-yl]sulfanyl}pyridine-4-carbonitrile]: the negative-log IC50 (pIC50) in experiment [1] was 7.44; in experiment [2], 5.00.
As for `C[C@@H]1CC[C@@H](Sc2cc(C#N)ccn2)CN1C(=O)c1ccccc1N1CCCC1` [Example 39, 2-({(3R,6R)-6-methyl-1-[(2-pyrrolidin-1-ylphenyl)carbonyl]piperidin-3-yl}sulfanyl)pyridine-4-carbonitrile], the negative-log IC50 (pIC50) in experiment [1] is 6.99; in experiment [2] it was 5.00.
As to `C[C@@H]1CC[C@@H](Sc2cc(C#N)ccn2)CN1C(=O)c1ccsc1-c1ncccn1` [Example 40, 2-({(3R,6R)-6-Methyl-1-[(2-pyrimidin-2-ylthiophen-3-yl)carbonyl]piperidin-3-yl}sulfanyl)pyridine-4-carbonitrile], the values for the negative logarithm of the IC50 (pIC50) in experiment [1] and in experiment [2] were 7.72 and 5.65, respectively.
Turning to `C[C@@H]1CC[C@@H](Sc2cc(C#N)ccn2)CN1C(=O)c1ccccc1-c1ncccn1` [Example 41, 2-({(3R,6R)-6-methyl-1-[(2-pyrimidin-2-ylphenyl)carbonyl]piperidin-3-yl}sulfanyl)pyridine-4-carbonitrile], the negative logarithm of the IC50 (pIC50) in experiment [1] is 7.72; in experiment [2] it was 5.80.
For `C[C@@H]1CC[C@@H](Sc2cc(C#N)ccn2)CN1C(=O)c1sccc1-c1ncccn1` [Example 42, 2-({(3R,6R)-6-methyl-1-[(3-pyrimidin-2-ylthiophen-2-yl)carbonyl]piperidin-3-yl}sulfanyl)pyridine-4-carbonitrile], the pIC50 in experiment [1] is 8.28; in experiment [2], 5.45.
As to `COc1ccc(C(=O)N2C[C@H](Sc3cc(C#N)ccn3)CC[C@H]2C)c(-c2ncccn2)n1` [Example 43, 2-({(3R,6R)-1-[(6-methoxy-2-pyrimidin-2-ylpyridin-3-yl)carbonyl]-6-methylpiperidin-3-yl}sulfanyl)pyridine-4-carbonitrile], the pIC50 in experiment [1] is 6.06; in experiment [2] it was 5.00.
On to `C[C@@H]1CC[C@@H](Sc2cc(C#N)ccn2)CN1C(=O)c1ccsc1-n1nccn1` [Example 44, 2-{[(3R,6R)-6-Methyl-1-{[2-(2H-1,2,3-triazol-2-yl)thiophen-3-yl]carbonyl}piperidin-3-yl]sulfanyl}pyridine-4-carbonitrile], for which the figures for the negative-log IC50 (pIC50) in experiment [1] and in experiment [2] were 7.73 and 5.41, respectively.
As for `C[C@@H]1CC[C@@H](Sc2ncccc2C(=O)O)CN1C(=O)c1ccccc1-n1nccn1` [Example 48, 2-{[(3R,6R)-6-Methyl-1-{[2-(2H-1,2,3-triazol-2-yl)phenyl]carbonyl}piperidin-3-yl]sulfanyl}pyridine-3-carboxylic acid], the figures for the pIC50 in experiment [1] and in experiment [2] were 6.20 and 5.18, respectively.
With `COC(=O)c1c(OC)ccnc1S[C@@H]1CC[C@@H](C)N(C(=O)c2ccccc2-n2nccn2)C1` [Example 49, Methyl 4-methoxy-2-{[(3R,6R)-6-methyl-1-{[2-(2H-1,2,3-triazol-2-yl)phenyl]carbonyl}piperidin-3-yl]sulfanyl}pyridine-3-carboxylate], the pIC50 is 7.95 in experiment [1] and 7.14 in experiment [2].
